Experimental data reported in patent publication US20070111267A1, “Method of determining efficacy of anticancer drug and determination kit therefor” (priority 2003, published 2007).
Structures can show the parent of a compound that is named as a salt.

Columns and labels:
p27 protein = conditions: reported in Tomoda K et al. J Biol Chem. 2002; cited from earlier work
MEG = assay: Sensitivity of cell line to the tyrosine kinase inhibitor; type: cell-based, human
Text: MEG: human CML cell line. Expression of Bcr-Abl protein. Sensitive to Bcr-Abl inhibitor.
(§1) One to two μM STI571 was directly added to a cell culture.

CMK = assay: as above; type: cell-based, human
Text: CMK: human megakaryocytic leukemia cell line. No expression of Bcr-Abl protein. Resistant to Bcr-Abl inhibitor.
as §1

MOLM1 = assay: as above; type: cell-based, human
Text: MOLM1: human CML cell line. Expression of Bcr-Abl protein. Sensitive to Bcr-Abl inhibitor.
as §1

HEL = assay: as above; type: cell-based, human
Text: HEL: human erythrocytic leukemia cell line. No expression of Bcr-Abl protein. Resistant to Bcr-Abl inhibitor.
as §1

K562 = assay: as above; type: cell-based, human
Text: K562: human CML cell line. Expression of Bcr-Abl protein. Sensitive to Bcr-Abl inhibitor.
as §1

KYO-1 = assay: as above; type: cell-based, human; conditions: KYO-1 cell line
Text: KYO-1: human CML cell line. Expression of Bcr-Abl protein. Resistant to Bcr-Abl inhibitor. See Leukemia Research 9: 921-926, (1985).
as §1

Compound | degradation of p27 protein by the Jab1 small complex (p27 protein) | Sensitivity to the tyrosine kinase inhibitor (MEG) | Sensitivity to the tyrosine kinase inhibitor (CMK) | Sensitivity to the tyrosine kinase inhibitor (MOLM1) | Sensitivity to the tyrosine kinase inhibitor (HEL) | Sensitivity to the tyrosine kinase inhibitor (K562) | Sensitivity to the tyrosine kinase inhibitor (KYO-1)
CCC(=C/[C@H](C)C/C=C/C(C)=C/[C@@H](C)C(=O)[C@@H](C)[C@H](O)[C@@H](C)C/C(C)=C/C(=O)O)/C=C/[C@@H]1OC(=O)C=C[C@@H]1C [leptomycin B] | inhibited |  |  |  |  |  | 
Cc1ccc(NC(=O)c2ccc(CN3CCN(C)CC3)cc2)cc1Nc1nccc(-c2cccnc2)n1 [tyrosine kinase inhibitor, imatinib mesylate] |  | sensitive | resistant | sensitive | resistant | sensitive | resistant
